Test results from the supplement of paper PMC12463676, “Small-molecule dissolution of stress granules by redox modulation benefits ALS models” (Nature Chemical Biology, 2025).

compound: NC(=O)CCCCC1CCSS1 [lipoamide]; assay: thermal stability z-score vs DMSO; higher = more thermally stabilized by treatment; conditions: HeLa; lipoamide concentration 100 µM; arsenate co-treatment: 1 mM arsenate 1 h
Protocol: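 Cellular thermal proteome profiling in HeLa cells. Cells were treated with 100 µM lipoamide for 1 h, with or without 1 mM arsenate for a further 1 h, then heated to ten temperatures (37-66.3 °C), and soluble protein was quantified by TMT mass spectrometry relative to 0.1% DMSO controls. The thermal stability score (sum of log2 fold changes minus the abundance score) was transformed to a z-score; mean of n = 3 experiments.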
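Note: each temperature applied for 3 min, abundance score taken as mean log2 fold change at the two lowest temperatures, z-score obtained by mean subtraction and division by SD.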

Chain of UniProt Q9NQT4 (Q9NQT4 whole entry): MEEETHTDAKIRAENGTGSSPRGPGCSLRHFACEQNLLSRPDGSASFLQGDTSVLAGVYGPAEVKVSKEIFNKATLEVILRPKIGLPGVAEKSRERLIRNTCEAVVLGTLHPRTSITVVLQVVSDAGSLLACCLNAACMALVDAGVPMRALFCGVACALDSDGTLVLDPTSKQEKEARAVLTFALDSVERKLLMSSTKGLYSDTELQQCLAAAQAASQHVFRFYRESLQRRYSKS
Chain of UniProt Q9BSF4 (Q9BSF4 whole entry): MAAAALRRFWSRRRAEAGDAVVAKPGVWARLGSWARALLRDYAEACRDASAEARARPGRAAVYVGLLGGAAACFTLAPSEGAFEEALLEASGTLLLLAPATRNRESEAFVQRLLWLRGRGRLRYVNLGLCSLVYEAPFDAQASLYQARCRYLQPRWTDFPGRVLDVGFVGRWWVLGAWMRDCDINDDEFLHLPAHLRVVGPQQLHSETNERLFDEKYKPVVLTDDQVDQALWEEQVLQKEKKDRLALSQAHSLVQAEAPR
Chain of UniProt Q14004 (Q14004 whole entry, looked up): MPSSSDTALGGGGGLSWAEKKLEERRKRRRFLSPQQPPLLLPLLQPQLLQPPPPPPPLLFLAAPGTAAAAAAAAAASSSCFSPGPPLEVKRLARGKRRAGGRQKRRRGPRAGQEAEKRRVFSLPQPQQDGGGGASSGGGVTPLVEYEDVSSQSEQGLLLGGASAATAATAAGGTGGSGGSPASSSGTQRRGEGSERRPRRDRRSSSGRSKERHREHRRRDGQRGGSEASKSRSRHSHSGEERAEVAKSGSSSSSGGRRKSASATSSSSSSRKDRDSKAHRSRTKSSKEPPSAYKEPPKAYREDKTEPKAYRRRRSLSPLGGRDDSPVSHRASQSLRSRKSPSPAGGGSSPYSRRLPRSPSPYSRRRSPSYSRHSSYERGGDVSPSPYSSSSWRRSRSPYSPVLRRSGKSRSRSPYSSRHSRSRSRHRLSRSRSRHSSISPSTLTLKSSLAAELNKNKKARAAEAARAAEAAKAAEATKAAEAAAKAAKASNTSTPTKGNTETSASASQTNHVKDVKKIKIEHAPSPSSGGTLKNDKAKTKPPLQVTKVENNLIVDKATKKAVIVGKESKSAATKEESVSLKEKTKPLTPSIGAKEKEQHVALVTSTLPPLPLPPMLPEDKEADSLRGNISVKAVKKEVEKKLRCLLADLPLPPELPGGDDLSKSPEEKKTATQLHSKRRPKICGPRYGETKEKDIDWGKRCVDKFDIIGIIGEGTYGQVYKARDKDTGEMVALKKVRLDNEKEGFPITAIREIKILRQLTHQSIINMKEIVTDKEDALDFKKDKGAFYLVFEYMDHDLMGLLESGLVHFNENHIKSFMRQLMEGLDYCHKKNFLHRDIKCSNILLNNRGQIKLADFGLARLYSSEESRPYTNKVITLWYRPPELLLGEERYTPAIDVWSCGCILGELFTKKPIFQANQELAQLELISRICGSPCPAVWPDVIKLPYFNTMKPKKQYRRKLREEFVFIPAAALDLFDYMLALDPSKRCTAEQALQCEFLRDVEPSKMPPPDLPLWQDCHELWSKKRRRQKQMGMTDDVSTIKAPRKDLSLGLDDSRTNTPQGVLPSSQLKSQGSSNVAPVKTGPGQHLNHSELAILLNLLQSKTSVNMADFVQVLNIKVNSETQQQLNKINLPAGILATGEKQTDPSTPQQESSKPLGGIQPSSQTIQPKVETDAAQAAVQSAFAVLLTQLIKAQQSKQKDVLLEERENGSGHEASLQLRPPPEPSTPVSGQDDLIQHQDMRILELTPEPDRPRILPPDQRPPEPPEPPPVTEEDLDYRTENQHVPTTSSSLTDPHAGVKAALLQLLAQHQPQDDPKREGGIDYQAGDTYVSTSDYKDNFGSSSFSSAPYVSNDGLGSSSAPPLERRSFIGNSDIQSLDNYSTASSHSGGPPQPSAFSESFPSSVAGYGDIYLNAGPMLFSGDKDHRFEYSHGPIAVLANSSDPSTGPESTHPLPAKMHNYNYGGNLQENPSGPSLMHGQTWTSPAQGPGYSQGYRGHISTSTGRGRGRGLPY
Chain of UniProt Q03154 (Q03154 whole entry): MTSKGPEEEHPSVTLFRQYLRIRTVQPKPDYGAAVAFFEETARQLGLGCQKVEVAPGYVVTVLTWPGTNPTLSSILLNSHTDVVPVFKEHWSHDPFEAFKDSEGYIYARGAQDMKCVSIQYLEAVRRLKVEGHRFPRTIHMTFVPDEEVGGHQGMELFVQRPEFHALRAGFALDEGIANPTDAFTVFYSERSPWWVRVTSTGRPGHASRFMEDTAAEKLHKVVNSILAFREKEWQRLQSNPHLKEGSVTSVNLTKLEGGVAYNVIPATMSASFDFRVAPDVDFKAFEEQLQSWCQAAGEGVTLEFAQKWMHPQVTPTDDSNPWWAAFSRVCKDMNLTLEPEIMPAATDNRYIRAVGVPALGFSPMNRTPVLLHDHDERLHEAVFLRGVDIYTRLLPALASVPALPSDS
Chain of UniProt O95139 (O95139 whole entry): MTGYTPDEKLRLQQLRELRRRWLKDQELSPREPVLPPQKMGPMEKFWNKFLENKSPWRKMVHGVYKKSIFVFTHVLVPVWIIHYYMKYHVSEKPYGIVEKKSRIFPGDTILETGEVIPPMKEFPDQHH
Chain of UniProt Q9BPY3 (Q9BPY3 whole entry): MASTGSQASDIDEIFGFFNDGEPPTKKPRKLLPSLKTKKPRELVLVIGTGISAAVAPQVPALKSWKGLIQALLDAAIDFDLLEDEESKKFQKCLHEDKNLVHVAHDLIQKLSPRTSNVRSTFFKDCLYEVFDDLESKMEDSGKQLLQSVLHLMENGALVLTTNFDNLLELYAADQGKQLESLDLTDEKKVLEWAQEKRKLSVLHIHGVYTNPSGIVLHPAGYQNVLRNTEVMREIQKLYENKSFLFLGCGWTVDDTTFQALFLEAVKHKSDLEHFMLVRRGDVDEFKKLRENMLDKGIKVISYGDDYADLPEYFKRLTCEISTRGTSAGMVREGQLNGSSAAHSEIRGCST
Chain of UniProt Q9C0E8 (Q9C0E8 whole entry): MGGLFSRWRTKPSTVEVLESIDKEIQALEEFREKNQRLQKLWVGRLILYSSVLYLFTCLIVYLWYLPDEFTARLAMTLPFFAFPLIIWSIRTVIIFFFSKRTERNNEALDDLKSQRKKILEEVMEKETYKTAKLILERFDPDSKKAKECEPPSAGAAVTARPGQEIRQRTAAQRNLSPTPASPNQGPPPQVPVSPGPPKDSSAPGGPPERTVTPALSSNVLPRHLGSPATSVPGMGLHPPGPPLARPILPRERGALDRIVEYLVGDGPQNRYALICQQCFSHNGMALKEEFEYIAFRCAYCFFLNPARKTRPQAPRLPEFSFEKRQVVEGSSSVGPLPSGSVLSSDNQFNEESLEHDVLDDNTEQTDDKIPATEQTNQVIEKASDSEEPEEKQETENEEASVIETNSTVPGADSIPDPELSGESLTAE
Chain of UniProt Q9H444 (Q9H444 whole entry): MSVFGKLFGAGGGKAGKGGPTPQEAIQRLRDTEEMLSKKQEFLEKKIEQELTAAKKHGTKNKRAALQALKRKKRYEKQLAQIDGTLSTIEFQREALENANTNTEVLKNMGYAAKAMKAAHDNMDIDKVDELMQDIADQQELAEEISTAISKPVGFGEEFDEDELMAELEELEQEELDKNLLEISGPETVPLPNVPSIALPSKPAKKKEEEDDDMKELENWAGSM
Chain of UniProt P11802 (P11802 whole entry): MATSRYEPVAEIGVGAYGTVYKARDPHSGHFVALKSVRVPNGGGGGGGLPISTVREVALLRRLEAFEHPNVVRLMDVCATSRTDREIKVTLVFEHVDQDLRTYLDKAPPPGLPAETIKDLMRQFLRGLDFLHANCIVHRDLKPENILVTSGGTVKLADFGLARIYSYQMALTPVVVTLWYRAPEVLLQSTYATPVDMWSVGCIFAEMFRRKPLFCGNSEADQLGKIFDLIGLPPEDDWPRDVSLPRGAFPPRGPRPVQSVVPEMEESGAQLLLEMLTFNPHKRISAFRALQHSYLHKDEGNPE
Chain of UniProt Q8TBE9 (Q8TBE9 whole entry): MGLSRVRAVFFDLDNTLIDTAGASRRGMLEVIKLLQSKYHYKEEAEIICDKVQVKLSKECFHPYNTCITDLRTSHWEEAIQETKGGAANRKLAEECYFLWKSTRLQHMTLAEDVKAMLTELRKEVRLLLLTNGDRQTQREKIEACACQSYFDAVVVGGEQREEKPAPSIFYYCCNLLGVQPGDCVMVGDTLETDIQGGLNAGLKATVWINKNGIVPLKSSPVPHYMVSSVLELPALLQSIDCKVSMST
Chain of UniProt P49770 (P49770 whole entry): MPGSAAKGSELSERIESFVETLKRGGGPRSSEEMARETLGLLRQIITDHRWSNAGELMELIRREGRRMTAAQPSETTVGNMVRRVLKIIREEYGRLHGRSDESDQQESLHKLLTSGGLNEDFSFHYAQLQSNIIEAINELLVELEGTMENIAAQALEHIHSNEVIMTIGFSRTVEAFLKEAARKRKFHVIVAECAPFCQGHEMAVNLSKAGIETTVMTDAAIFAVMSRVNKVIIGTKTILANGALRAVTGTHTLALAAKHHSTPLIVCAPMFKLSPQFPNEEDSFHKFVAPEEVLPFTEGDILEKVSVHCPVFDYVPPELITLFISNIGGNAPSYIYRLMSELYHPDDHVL
Chain of UniProt Q13257 (Q13257 whole entry): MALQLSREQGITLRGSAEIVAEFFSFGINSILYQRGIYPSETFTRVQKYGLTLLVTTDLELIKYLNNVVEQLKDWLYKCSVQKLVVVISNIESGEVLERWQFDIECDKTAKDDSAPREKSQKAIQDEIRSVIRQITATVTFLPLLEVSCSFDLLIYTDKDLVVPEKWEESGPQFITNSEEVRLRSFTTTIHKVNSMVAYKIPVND
Chain of UniProt Q9Y530 (Q9Y530 whole entry): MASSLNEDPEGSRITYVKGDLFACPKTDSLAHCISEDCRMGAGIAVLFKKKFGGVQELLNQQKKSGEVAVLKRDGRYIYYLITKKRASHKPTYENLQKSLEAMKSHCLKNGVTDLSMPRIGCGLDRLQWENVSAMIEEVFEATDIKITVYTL
Chain of UniProt Q9H3K6 (Q9H3K6 whole entry): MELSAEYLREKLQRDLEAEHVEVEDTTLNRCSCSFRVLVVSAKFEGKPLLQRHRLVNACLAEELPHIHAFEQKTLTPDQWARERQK

Point of comparison: TMEM87B (UniProt Q96K49), thermal stability z-score -0.402. Against it:
- MAD2L1 (UniProt Q13257) — higher, -0.109
- PM20D2 (UniProt Q8IYS1) — higher, 0.623
- NANP (UniProt Q8TBE9) — higher, 0.191
- EXOSC5 (UniProt Q9NQT4) — higher, 1.79
- EIF3K (UniProt Q9UBQ5) — higher, -0.353
- NAGA (UniProt P17050) — lower, -0.786
- FANCG (UniProt O15287) — higher, -0.348
- FAM118B (UniProt Q9BPY3) — higher, 0.49
- MCM5 (UniProt P33992) — lower, -0.676
- CDK13 (UniProt Q14004) — higher, 0.155
- APPL1 (UniProt Q9UKG1) — higher, -0.333
- QPCTL (UniProt Q9NXS2) — lower, -0.434
- ACY1 (UniProt Q03154) — higher, 0.304
- C19ORF52 (UniProt Q9BSF4) — higher, 0.441
- NDUFB6 (UniProt O95139) — higher, 0.071
- CBR3 (UniProt O75828) — higher, 0.347
- OARD1 (UniProt Q9Y530) — higher, 0.407
- CIT (UniProt O14578) — higher, 0.342
- GTF2F1 (UniProt P35269) — higher, -0.208
- CDK4 (UniProt P11802) — higher, 1.15
- EIF2B2 (UniProt P49770) — higher, 1.07
- GOLGA3 (UniProt Q08378) — higher, 0.291
- AP1G2 (UniProt O75843) — higher, 0.17
- ADD1 (UniProt P35611) — higher, -0.281
- SLC4A2 (UniProt P04920) — higher, 0.115
- FNDC3A (UniProt Q9Y2H6) — lower, -0.542
- EIF2AK4 (UniProt Q9P2K8) — higher, 0.566
- MAPK8 (UniProt P45983) — higher, 0.24
- AP2B1 (UniProt P63010) — higher, -0.153
- RANBP9 (UniProt Q96S59) — higher, -0.364
- ARHGAP27 (UniProt Q6ZUM4) — higher, -0.103
- TOP3B (UniProt O95985) — higher, 0.2
- C16ORF58 (UniProt Q96GQ5) — lower, -0.446
- CHMP4B (UniProt Q9H444) — higher, 0.0919
- ILK (UniProt Q13418) — higher, 0.201
- ADI1 (UniProt Q9BV57) — higher, 0.768
- POLR2E (UniProt P19388) — higher, 0.281
- PPP1R15B (UniProt Q5SWA1) — higher, -0.102
- TLE3 (UniProt Q04726) — higher, 0.171
- MDN1 (UniProt Q9NU22) — higher, 0.0494
- MGST1 (UniProt P10620) — higher, 0.304
- OXR1 (UniProt Q8N573) — higher, 0.209
- UBAC1 (UniProt Q9BSL1) — higher, 0.447
- MVP (UniProt Q14764) — higher, 0.484
- DTX2 (UniProt Q86UW9) — higher, -0.228
- BOLA2 (UniProt Q9H3K6) — higher, 0.16
- CYR61 (UniProt O00622) — lower, -1.72
- RIC8B (UniProt Q9NVN3) — lower, -1.09
- DLGAP4 (UniProt Q9Y2H0) — higher, -0.0201
- EDRF1 (UniProt Q3B7T1) — higher, -0.147
- TAGLN2 (UniProt P37802) — higher, 0.511
- LNP (UniProt Q9C0E8) — lower, -1.09
- WDR55 (UniProt Q9H6Y2) — higher, 0.00122
- DHODH (UniProt Q02127) — higher, 0.213

same assay, conditions: HeLa; lipoamide concentration 100 µM; arsenate co-treatment: none

Point of comparison: PM20D2 (UniProt Q8IYS1), thermal stability z-score 1.29. Against it:
- MAD2L1 (UniProt Q13257) — lower, -0.147
- NANP (UniProt Q8TBE9) — lower, 0.0578
- EXOSC5 (UniProt Q9NQT4) — lower, 1.03
- EIF3K (UniProt Q9UBQ5) — lower, 0.0198
- NAGA (UniProt P17050) — lower, -0.0771
- FANCG (UniProt O15287) — lower, -0.437
- FAM118B (UniProt Q9BPY3) — lower, -0.244
- MCM5 (UniProt P33992) — lower, -0.191
- CDK13 (UniProt Q14004) — lower, -0.0381
- APPL1 (UniProt Q9UKG1) — lower, 0.107
- QPCTL (UniProt Q9NXS2) — lower, -0.457
- ACY1 (UniProt Q03154) — lower, 0.38
- C19ORF52 (UniProt Q9BSF4) — lower, 0.873
- NDUFB6 (UniProt O95139) — lower, 0.306
- CBR3 (UniProt O75828) — lower, -0.0437
- OARD1 (UniProt Q9Y530) — lower, 0.708
- TMEM87B (UniProt Q96K49) — lower, 0.56
- CIT (UniProt O14578) — lower, -0.767
- GTF2F1 (UniProt P35269) — lower, -0.0526
- CDK4 (UniProt P11802) — lower, 1.03
- EIF2B2 (UniProt P49770) — lower, 0.55
- GOLGA3 (UniProt Q08378) — lower, 0.128
- AP1G2 (UniProt O75843) — lower, 0.114
- ADD1 (UniProt P35611) — lower, -0.308
- SLC4A2 (UniProt P04920) — lower, 0.433
- FNDC3A (UniProt Q9Y2H6) — lower, 0.324
- EIF2AK4 (UniProt Q9P2K8) — lower, 0.141
- MAPK8 (UniProt P45983) — lower, 0.00773
- AP2B1 (UniProt P63010) — lower, -0.596
- RANBP9 (UniProt Q96S59) — lower, -0.234
- ARHGAP27 (UniProt Q6ZUM4) — lower, -0.156
- TOP3B (UniProt O95985) — lower, -0.391
- C16ORF58 (UniProt Q96GQ5) — lower, -0.183
- CHMP4B (UniProt Q9H444) — lower, 0.359
- ILK (UniProt Q13418) — lower, -0.00153
- ADI1 (UniProt Q9BV57) — lower, 0.913
- POLR2E (UniProt P19388) — lower, 0.459
- PPP1R15B (UniProt Q5SWA1) — lower, -0.0322
- TLE3 (UniProt Q04726) — lower, 0.329
- MDN1 (UniProt Q9NU22) — lower, 0.0439
- MGST1 (UniProt P10620) — lower, -0.147
- OXR1 (UniProt Q8N573) — lower, 0.17
- UBAC1 (UniProt Q9BSL1) — lower, -0.0576
- MVP (UniProt Q14764) — lower, 0.37
- DTX2 (UniProt Q86UW9) — lower, 0.0239
- BOLA2 (UniProt Q9H3K6) — lower, 0.49
- CYR61 (UniProt O00622) — lower, -1.47
- RIC8B (UniProt Q9NVN3) — lower, -0.233
- DLGAP4 (UniProt Q9Y2H0) — lower, -0.367
- EDRF1 (UniProt Q3B7T1) — lower, -0.327
- TAGLN2 (UniProt P37802) — lower, 0.94
- LNP (UniProt Q9C0E8) — lower, -0.771
- WDR55 (UniProt Q9H6Y2) — lower, -0.679
- DHODH (UniProt Q02127) — lower, 0.162

compound: O=[As]([O-])(O)O.[K+] [potassium arsenate]; assay: as above; conditions: HeLa; arsenate concentration 1 mM
Protocol: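 Cellular thermal proteome profiling in HeLa cells treated with 1 mM arsenate for 1 h (DMSO pretreatment), heated to ten temperatures (37-66.3 °C). Soluble protein was quantified by TMT mass spectrometry relative to DMSO controls; the thermal stability score was transformed to a z-score; mean of n = 3 experiments.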

Point of comparison: CIT (UniProt O14578), thermal stability z-score -0.76. Against it:
- MAD2L1 (UniProt Q13257) — higher, 1.96
- PM20D2 (UniProt Q8IYS1) — higher, 1.81
- NANP (UniProt Q8TBE9) — higher, -0.582
- EXOSC5 (UniProt Q9NQT4) — higher, -0.564
- EIF3K (UniProt Q9UBQ5) — higher, 0.00475
- NAGA (UniProt P17050) — higher, 0.546
- FANCG (UniProt O15287) — higher, -0.507
- FAM118B (UniProt Q9BPY3) — higher, 0.57
- MCM5 (UniProt P33992) — higher, 2.47
- CDK13 (UniProt Q14004) — higher, -0.0661
- APPL1 (UniProt Q9UKG1) — higher, 1.2
- QPCTL (UniProt Q9NXS2) — higher, -0.256
- ACY1 (UniProt Q03154) — higher, 0.873
- C19ORF52 (UniProt Q9BSF4) — higher, 0.873
- NDUFB6 (UniProt O95139) — higher, 0.873
- CBR3 (UniProt O75828) — higher, 0.282
- OARD1 (UniProt Q9Y530) — lower, -0.793
- TMEM87B (UniProt Q96K49) — higher, -0.0195
- GTF2F1 (UniProt P35269) — higher, -0.307
- CDK4 (UniProt P11802) — higher, 0.783
- EIF2B2 (UniProt P49770) — higher, 0.643
- GOLGA3 (UniProt Q08378) — higher, 0.587
- AP1G2 (UniProt O75843) — higher, 0.167
- ADD1 (UniProt P35611) — lower, -0.913
- SLC4A2 (UniProt P04920) — higher, 0.173
- FNDC3A (UniProt Q9Y2H6) — higher, 0.846
- EIF2AK4 (UniProt Q9P2K8) — higher, 2.05
- MAPK8 (UniProt P45983) — higher, -0.00139
- AP2B1 (UniProt P63010) — higher, -0.216
- RANBP9 (UniProt Q96S59) — higher, -0.508
- ARHGAP27 (UniProt Q6ZUM4) — higher, -0.309
- TOP3B (UniProt O95985) — higher, -0.73
- C16ORF58 (UniProt Q96GQ5) — higher, -0.192
- CHMP4B (UniProt Q9H444) — higher, -0.176
- ILK (UniProt Q13418) — higher, 0.129
- ADI1 (UniProt Q9BV57) — higher, -0.317
- POLR2E (UniProt P19388) — lower, -1.34
- PPP1R15B (UniProt Q5SWA1) — higher, -0.0349
- TLE3 (UniProt Q04726) — higher, -0.674
- MDN1 (UniProt Q9NU22) — higher, 0.0865
- MGST1 (UniProt P10620) — higher, 0.892
- OXR1 (UniProt Q8N573) — higher, 0.101
- UBAC1 (UniProt Q9BSL1) — higher, 0.576
- MVP (UniProt Q14764) — higher, 1.08
- DTX2 (UniProt Q86UW9) — higher, -0.381
- BOLA2 (UniProt Q9H3K6) — higher, 0.583
- CYR61 (UniProt O00622) — lower, -4.51
- RIC8B (UniProt Q9NVN3) — higher, -0.00195
- DLGAP4 (UniProt Q9Y2H0) — lower, -2.62
- EDRF1 (UniProt Q3B7T1) — higher, -0.168
- TAGLN2 (UniProt P37802) — higher, -0.184
- LNP (UniProt Q9C0E8) — lower, -0.997
- WDR55 (UniProt Q9H6Y2) — lower, -1.7
- DHODH (UniProt Q02127) — higher, -0.752
